We go through three compounds from PMC9228535, “Antistaphylococcal Activities and ADME-Related Properties of Chlorinated Arylcarbamoylnaphthalenylcarbamates” (Pharmaceuticals, 2022).

Series [1] in a line: Lipophilicity determination by RP-HPLC (log k, log D). Type of series: physicochemical. Particulars: RP-HPLC; for log D6.5: MeOH 72%/acetate buffered saline pH 6.5; for log D7.4: MeOH 72%/acetate buffered saline pH 7.4; for log k: MeOH 72%/water 28%. Here is the method:
Lipophilicity was measured by reversed-phase high performance liquid chromatography (RP-HPLC) under isocratic conditions with methanol as the organic modifier in the aqueous mobile phase and the logarithm of the capacity factor k was calculated, which is used as the lipophilicity index converted to the log P scale. In addition to the log k values, the logarithm of the distribution coefficient DpH at pH 6.5 and 7.4 was determined to clarify the behavior of the compounds under physiological conditions and possible ionization. Instead of water, a buffer of suitable pH was used as part of the mobile phase. In addition to the above-mentioned experimental methods, commercially available ChemBioDraw Ultra 13.0 and ACD/Percepta ver. […] In addition to lipophilicity, other parameters discussed in Ro5, such as molecular weight, number of H-bond donors/acceptors, as well as parameters not reported in Ro5, but characterizing the physicochemical properties of the prepared molecules, such as number of rotatable bonds, were predicted using ACD/Percepta. Moreover, for each R substituent, bulkiness expressed as molar volume (MV [cm^3]), a parameter describing the tail length/branching of each carbamates, was calculated.
A HPLC separation module Agilent 1200 Series (Agilent Technologies, Santa Clara, CA, USA) equipped with a Dual Absorbance Detector (DAD SL G1315C, Agilent Technologies) was used. A chromatographic column Symmetry® C18 5 μm, 4.6 × 250 mm, Part No. W21751W016 (Waters Corp, Milford, MA, USA) was used. The HPLC separation process was monitored by ChemStation for LC 3D systems (Agilent Technologies). […] The total flow of the column was 1.0 mL/min, injection 20 μL, column temperature 40 °C, and sample temperature 10 °C. The detection wavelength of 210 nm was chosen. A KI methanolic solution was used for the determination of the dead times (tD). Retention times (tR) were measured in minutes. The capacity factors k were calculated according to the formula k = (tR − tD)/tD, where tR is the retention time of the solute, and tD is the dead time obtained using an unretained analyte. The distribution coefficients DpH were calculated according to the formula DpH = (tR − tD)/tD. Each experiment was repeated three times.

Series [2] has as its system MRSA 63718. The experiment in a line: MIC, microtitration broth method. Type of series: cell-based. To be noted: Staphylococcus aureus. Here is the method: (§1) All the investigated compounds were screened for in vitro antibacterial activity against the reference and quality control strain Staphylococcus aureus ATCC 29213 and clinical isolates of methicillin-resistant S. aureus (MRSA) 63718, SA 630, and SA 3202 [14]. Activities are expressed as the minimum inhibitory concentrations (MICs), see Table 2. In addition to the MICs, the minimum bactericidal concentrations (MBCs) were also determined.
(§2) In vitro antibacterial activity of the synthesized compounds was evaluated against representatives of multidrug-resistant bacteria, three clinical isolates of methicillin-resistant S. aureus: clinical isolate of animal origin, MRSA 63718 (Department of Infectious Diseases and Microbiology, Faculty of Veterinary Medicine, University of Veterinary Sciences Brno, Czech Republic), carrying the mecA gene; and MRSA SA 630 [46] and MRSA SA 3202 [46] (National Institute of Public Health, Prague, Czech Republic), both of human origin. Suspected colonies were confirmed by PCR; a 108bp fragment specific for S. aureus was detected. All isolates were tested for the presence of the mecA gene encoding methicillin resistance. […] Vancomycin-susceptible methicillin-susceptible S. aureus (VS-MSSA) ATCC 29213, obtained from the American Type Culture Collection, was used as the reference and quality control strain. Enterococcus faecalis ATCC 29212 was obtained from the American Type Culture Collection and used as the reference and quality control strain.
(§3) The minimum inhibitory concentrations (MICs) were evaluated by the microtitration broth method according to the CLSI [64, 65] with some modifications. The compounds were dissolved in DMSO (Sigma, St. Louis, MO, USA) to get a concentration […] and diluted in a microtitration plate in an appropriate medium, namely, Cation Adjusted Mueller–Hinton (CaMH, Oxoid, Basingstoke, UK) for staphylococci (S. aureus ATCC 29213, clinical isolates of MRSA 63718, SA 630, and SA 3202) and brain heart infusion (BHI, Oxoid) for E. faecalis ATCC 29212, to reach the final concentration of 256-0.125 µg/mL. The plate was inoculated by the tested microorganisms. The final concentration of bacterial cells was 10^5 for bacteria. Ampicillin (Sigma) was used as reference drugs. A drug-free control and a sterility control were included. The plates were incubated for 24 h at 37 °C for staphylococci and E. faecalis ATCC 29212 (stability evaluation of the carbamates, see Supplementary materials, Table S1). […] The experiments were repeated three times.

In series [3] the test system is MRSA SA 3202. Description: MIC, microtitration broth method. Format: cell-based. Particulars: Staphylococcus aureus. Here is the method:
as §1, §2, §3

Series [4] deals with MRSA SA 630. Description: MIC, microtitration broth method. Particulars: Staphylococcus aureus. Format: cell-based. On the procedure:
as §1, §2, §3

For series [5], the system named is Staphylococcus aureus ATCC 29213. Description: MIC, microtitration broth method. Type of series: cell-based. Particulars: ATCC29213, SA = S. aureus ATCC 29213, 24 h, read-out: MIC. On the procedure: as §1, §2, §3
For series [6], the system named is Enterococcus faecalis ATCC 29212. The experiment in a line: MIC, microtitration broth method. Type of series: cell-based. To be noted: ATCC29212; EF = Enterococcus faecalis, 24 h; read-out: MIC. Here is the method: as §2, §3
In series [7] the test system is THP-1 cells. Description: In vitro cytotoxicity assay (WST-1). Type of series: cell-based. To be noted: Homo sapiens; THP-1, 24 h, ± SD, n = 6; read-out: IC50. On the procedure:
Preliminary in vitro cytotoxicity screening of the investigated compounds was performed using human monocytic leukemia THP-1 cells, see Table 2. The ability to inhibit the human cancer cell viability (IC50) of the compounds was compared to camptothecin toxicity (0.16 ± 0.07 μM). […] However, these values are up to two orders of magnitude higher than their significant antistaphyloccocal concentrations. This fact is also taken into account in the calculated selectivity index (SI), Table 2, where for only three compounds the SI is <20, while for the rest of the agents SI is >20, and for some derivatives even 100 and more. Thus, based on all these observations, it can be concluded that all the tested derivatives can be considered as in vitro non-toxic compounds for the subsequent design of new therapeutic agents.
The human THP-1 cell line (European Collection of Cell Cultures, Salisbury, UK) was cultured in RPMI 1640 medium supplemented with 10% fetal bovine serum, 2% L-glutamine, 1% penicillin, and streptomycin at 37 °C with 5% CO2. Cells were passaged at approximately 1-week intervals. All the tested compounds were prepared and dissolved as mentioned in our previous work.
Background: Formazan colour is commonly taken as a measure of viable cells.

The subject of series [8] is S. aureus and MRSA isolates. The experiment in a line: Antistaphylococcal MIC, summary over strains. Type of series: cell-based, Staphylococcus aureus. Here is the method: All the investigated compounds were screened for in vitro antibacterial activity against the reference and quality control strain Staphylococcus aureus ATCC 29213 and clinical isolates of methicillin-resistant S. aureus (MRSA) 63718, SA 630, and SA 3202 [14]. Activities are expressed as the minimum inhibitory concentrations (MICs), see Table 2. In addition to the MICs, the minimum bactericidal concentrations (MBCs) were also determined. […] MBC values that meet this requirement, i.e., the compound is bactericidal, are indicated in bold in Table 2.
as §2
The minimum inhibitory concentrations (MICs) were evaluated by the microtitration broth method according to the CLSI [64, 65] with some modifications. […]

The subject of series [9] is MRSA 63718. The experiment in a line: MBC, agar aliquot subculture method. Type of series: cell-based. Particulars: Staphylococcus aureus, MRSA. On the procedure: as §1
(§4) For the S. aureus and MRSA isolates, the agar aliquot subculture method was used as a test for bactericidal agents. After the MIC value determination, the inoculum was transferred to Mueller–Hinton (Oxoid) agar using a multipoint inoculator. The plates were incubated in a thermostat at 37 °C for 24 h. The lowest concentration of test compound at which ≤5 colonies were obtained was then evaluated as MBC, corresponding to a 99.9% decrease in CFU relative to the original inoculum.

Series [10] deals with MRSA SA 3202. The experiment in a line: MBC, agar aliquot subculture method. Format: cell-based. Particulars: Staphylococcus aureus. Here is the method: as §1, §4
The test system of series [11] is MRSA SA 630. The experiment in a line: MBC, agar aliquot subculture method. Type of series: cell-based. Particulars: Staphylococcus aureus. On the procedure: as §1, §4
Series [12] relates to Staphylococcus aureus ATCC 29213. The experiment in a line: MBC, agar aliquot subculture method. Type of series: cell-based. Particulars: ATCC29213, SA = S. aureus ATCC 29213, read-out: MBC. On the procedure: as §1, §4
In series [13] the test system is MRSA 63718. Further details: method as in PMID 25692135. Particulars: cited from earlier work.

In brackets after ≈: the same amount, converted by molar mass. Read-outs that look alike come from different tables or passages of the source.

Take `O=C(Nc1cc(Cl)c(Cl)cc1Cl)c1ccc2ccccc2c1O` [Compound 1, 1-hydroxy-N-(2,4,5-trichlorophenyl)-2-naphthamide]: in series [1], the “log D6.5” value is 0.5782. Moreover, in series [1], the “log D7.4” value was determined as 0.5384. In series [1], this compound came in with a log k of 0.6600. The MIC in series [2] (MRSA1 = MRSA 63718, 24 h, read-out: MIC) stood at 698 µM (≈ 256 µg/mL); in series [3] (MRSA3 = SA 3202, 24 h, read-out: MIC), 698 µM (≈ 256 µg/mL); in series [4] (MRSA2 = SA 630, 24 h, read-out: MIC), 698 µM (≈ 256 µg/mL); in series [5] it was 698 µM (≈ 256 µg/mL); in [6], 477 µM (≈ 175 µg/mL). Also, the half-maximal inhibitory concentration (IC50) (as a rule, the concentration that inhibits the measured activity by half) in series [7] was > 30 µM. Also, the “antistaphylococcal/antibacterial activity (in words)” value in series [8] (S. aureus and MRSA isolates) is recorded as “no antibacterial activity”.
Turning to `CCCCNC(=O)Oc1c(C(=O)Nc2cc(Cl)c(Cl)cc2Cl)ccc2ccccc12` [Compound 4, 2-[N-(2,4,5-Trichlorophenyl)carbamoyl]naphthalen-1-yl butyl carbamate], the “log D6.5” value in series [1] was 0.9980. In addition, in [1], the “log D7.4” value worked out at 1.1401. In addition, the log k in series [1] stood at 1.0756. Further, the MIC in [2] (MRSA, 24 h) is 0.135 µM (≈ 0.0629 µg/mL); in series [3] (24 h), 0.069 µM (≈ 0.0321 µg/mL); in [4] (24 h), 0.017 µM (≈ 0.00792 µg/mL); in series [5], 0.034 µM (≈ 0.0158 µg/mL); in series [6] it was 275 µM (≈ 128 µg/mL); in series [8] (Staphylococcus aureus, read-out: MICs), 0.018 to 0.064 µM (≈ 0.00838 to 0.0298 µg/mL). In addition, the MBC (usually the smallest concentration meeting the test's criterion for killing) was found to be 0.268 µM (≈ 0.125 µg/mL) in series [9], 0.069 µM (≈ 0.0321 µg/mL) in series [10], 0.537 µM (≈ 0.25 µg/mL) in [11] and 0.034 µM (≈ 0.0158 µg/mL) in series [12]. Moreover, the IC50 in [7] was 3.42 ± 0.1 µM.
For the compound `CN[C@H](CC(C)C)C(=O)N[C@H]1C(=O)N[C@@H](CC(N)=O)C(=O)N[C@H]2C(=O)N[C@H]3C(=O)N[C@H](C(=O)N[C@H](C(=O)O)c4cc(O)cc(O)c4-c4cc3ccc4O)[C@H](O)c3ccc(c(Cl)c3)Oc3cc2cc(c3O[C@@H]2O[C@H](CO)[C@@H](O)[C@H](O)[C@H]2O[C@H]2C[C@](C)(N)[C@H](O)[C@H](C)O2)Oc2ccc(cc2Cl)[C@H]1O` [vancomycin], the MIC in series [13] is 2 µg/mL (≈ 1.38 µM).
